Test results published in patent US20170184612A1, “USE OF LEUKOCYTES AND NOVEL BIOMARKERS IN THE DIAGNOSIS, CONFIRMATION, AND TREATMENT OF A NEUROLOGICAL DISORDER” (The Trustees of Columbia University in the City of New York, priority 2014, published 2017).

Columns and labels:
[1] = tested on: peripheral blood mononuclear cells (PBMC), T cells; test: ELISpot assay, gamma-interferon release (SFC) after stimulation with a-synuclein epitope pools; type: cell-based, human; details: for Pool +: IFNg, Pool Stimulated, number of donors with a positive response, Donors tested 1
Procedure: (§1) Blood from age matched controls and PD patients were obtained and mononuclear cells were isolated by gradient centrifugation.
(§2) Release of the cytokines gamma-interferon, which measures activation of CD4+ and/or CD8+ T cells, and the interleukin, IL-5, which measures activation of CD4+ T cells was measured by ELISpot assay. […] After 22 hours of stimulation at 37 C, the cells were removed and release of cytokines was measured by colorimetric detection of spot-forming cells (SFC). Confirmed release of cytokine is determined by the presence of a minimum of 20 SFC per million cells.
(§3) The binding algorithms in SubAim 1 predict how well the peptides would bind to MHC if present, but not if they are present in patients. To determine this, the presence of T cell response against the candidate antigens by patient blood-derived peripheral blood mononuclear cells (PBMC) is assessed by ELISPOT assays upon stimulation with the peptides. This assay detects and quantifies cytokine release (in this case, IFNγ and IL-5) from specific activated T cells.
(§4) Data were obtained from blood samples (25 ml) from 44 PD patients and 24 age-matched controls. The experiments were conducted blindly. PBMCs from these samples were isolated and exposed to pools comprising the 122 candidate class I and class II antigens and phosphorylated S129 epitopes generated in Subaim 1. For the PBMCs responsive to the pooled peptides, the response was then deconvoluted to identify individual epitopes.
(§5) PMBC fractions are recovered by standard methods with Ficoll gradient and T cells expansion (Oseroff et al., 2010). The methods for the analysis of T cell reactions and measurement of cytokines production using the enzyme-linked immunosorbent spot (ELISPOT) assay are published in analogous experiments to discover antigens in multiple sclerosis (Lolli et al., 2013) and in hay fever allergens (Oseroff et al., 2010). T cell responses are determined by measuring IFNγ and IL-5 release by ELISPOT. Statistical analysis of differences between populations is expected to be non-parametric and analyzed with the U-Mann-Whitney test. If there were a normal distribution of response, which is a priori unlikely as some patients have no T cell response, with an SD=1, 8 patients per group would be required to provide a p>90% that the study detect a >2 fold difference at a two-sided 0.05 significance level.

[2] = tested on: peripheral blood mononuclear cells (PBMC), T cells; test: ELISpot assay, IL-5 release (SFC) after stimulation with a-synuclein epitope pools; type: cell-based, human
Procedure: as §1, §2, §3, §4, §5

[3] = Patients Summary, PD patients, of donors tested (peptide)
[4] = Patients Summary, PD patients, single peptide
[5] = number of donors positive to the single peptide, second 'Pool Stimulated' section (from r296), 12 donors tested
[6] = peptide + / donors tested (peptide), second 'Pool Stimulated' section (from r296), 12 donors tested
[7] = single peptide, second 'Pool Stimulated' section (from r296), 12 donors tested
[8] = pool 'Phospho' (phosphorylated peptides)
[9] = Patients Summary, Phospho pool peptides
[10] = Patients Summary, Phospho pool peptides, 10 donors tested
[11] = peptides of pool 'Poshpho', 8 donors tested
[12] = peptides of pool 'Poshpho', 8 donors tested, number of donors positive

Substance	Pool + [1]	IFNg Peptide + (donors positive to the peptide) [1, 3]	IFNg Response Frequency [1, 4] [%]	IFNg Total SFC [1, 4] [SFC]	IFNg Peptide + [1, 5]	IFNg Response Frequency [1, 6] [%]	IL-g Peptide + (donors positive to the peptide) [2, 3]	IL-g Response Frequency [2, 4] [%]	IL-g Total SFC [2, 4] [SFC]	IL-g Peptide + [2, 5]	IL-g Response Frequency [2, 6] [%]	IL-g Total SFC [2, 7] [SFC]	IFNg Total SFC [1, 7] [SFC]	IL-g Avg SFC [2, 4] [SFC]	also measured
3521.0001 (PVDPDNEAY; listed as Homo sapiens)	0	0	0	0	0	0	0	0	0	0	0	0			
3521.002 (AGKTKEGVL; listed as Homo sapiens)	0	1	13	98	0	0	1	13	106	0	0	0	0	106	IFNg Avg SFC [1, 4]: 98 SFC
3521.0002 (PSEEGYQDY; listed as Homo sapiens)	0	0	0	0	0	0	0	0	0	0	0	0			Pool + [1, 8]: 0; IFNg Avg SFC [1, 9]: 460 SFC; IFNg Response Frequency [1, 9]: 10%; IFNg Total SFC [1, 9]: 460 SFC; IFNg Peptide + (donors positive to the peptide) [1, 10]: 1; IFNg Response Frequency [1, 11]: 0%; IFNg Total SFC [1, 11]: 0 SFC; IFNg Peptide + [1, 12]: 0; IL-g Response Frequency [2, 9]: 0%; IL-g Total SFC [2, 9]: 0 SFC; IL-g Peptide + (donors positive to the peptide) [2, 10]: 0; IL-g Response Frequency [2, 11]: 0%; IL-g Total SFC [2, 11]: 0 SFC; IL-g Peptide + [2, 12]: 0
3521.003 (GSIAAATGFV; listed as Homo sapiens)	0	0	0	0	0	0	1	25	40	0	0	0	0	40	
3521.0003 (SIAAATGFV; listed as Homo sapiens)	0	0	0	0	1	50	0	0	0	0	0	0	33.3		IFNg Avg SFC [1, 7]: 33.3 SFC
3521.004 (DNEAYEMPSE; listed as Homo sapiens)	0	0	0	0	0	0	0	0	0	0	0	0			Pool + [1, 8]: 0; IFNg Avg SFC [1, 9]: 364 SFC; IFNg Response Frequency [1, 9]: 20%; IFNg Total SFC [1, 9]: 727 SFC; IFNg Peptide + (donors positive to the peptide) [1, 10]: 2; IFNg Response Frequency [1, 11]: 0%; IFNg Total SFC [1, 11]: 0 SFC; IFNg Peptide + [1, 12]: 0; IL-g Avg SFC [2, 9]: 203 SFC; IL-g Response Frequency [2, 9]: 20%; IL-g Total SFC [2, 9]: 406.3 SFC; IL-g Peptide + (donors positive to the peptide) [2, 10]: 2; IL-g Response Frequency [2, 11]: 0%; IL-g Total SFC [2, 11]: 0 SFC; IL-g Peptide + [2, 12]: 0
3521.005 (APGKTKEGVL; listed as Homo sapiens)	0	1	13	44	0	0	2	25	137	0	0	0	0	67.5	IFNg Avg SFC [1, 4]: 44 SFC
3521.0005 (AVVTGVTAV; listed as Homo sapiens)	0	0	0	0	0	0	0	0	0	0	0	0	0		
3521.006 (VATVAEKTKE; listed as Homo sapiens)	1	0	0	0	0	0	0	0	0	0	0	0	0		
3521.0006 (VLYVGSKTK; listed as Homo sapiens)	0	5	83	1519			2	33	168					84	IFNg Avg SFC [1, 4]: 304 SFC
3521.0007 (AAATGFVKK; listed as Homo sapiens)	0	0	0	0	0	0	0	0	0	0	0	0	0		
3521.0008 (IAAATGFVK; listed as Homo sapiens)	0	0	0	0	0	0	1	25	177	0	0	0	0	177	
3521.0009 (LYVGSKTKK; listed as Homo sapiens)	0	2	33	326			1	17	559					559	IFNg Avg SFC [1, 4]: 163 SFC
3521.0011 (QVTNVGGAV; listed as Homo sapiens)	0	0	0	0	0	0	0	0	0	0	0	0	0		
352100.45 (KTKKGVVHGV; listed as Homo sapiens)	0														
